In test [1] the test system is U87MG cells. Nature of the test: Induced cell death with ATG1 silencing or pan-caspase inhibition. The settings on record: pan-caspase inhibitor; FIG. 3c.
Test [2] relates to human U87 MG astrocytoma cells. Nature of the test: Cell viability of human U87 MG astrocytoma cells in culture. Format: cell-based. The conditions noted are these: U-87 MG, pure cannabinoids. On the procedure: Tetrahydrocannabinol (THC) and cannabidiol (CBD) in the form of cannabis plant extracts were dissolved in ethanol to a concentration of 100 mM this was stored at −20° C. until required.
Before use the cannabis plant extracts were further diluted to the desired concentration, ensuring that the concentration of ethanol was below 0.001%.
U87 human glioma cells were used throughout this experiment. The cells were maintained at 37° C. in a humidified atmosphere with 5% CO2 and 95% air.
Cells were cultured in a 75 cm^2 culture flask in Dulbecco's Modified Eagle Medium (DMEM), which had been supplemented with 4 mM L-glutamine, 100 units/ml penicillin, […], 1% sodium pyruvate, 1% non-essential amino acids and 10% heat-inactivated fetal bovine serum.
The viability of the human U87 MG astrocytoma cells were examined at various cannabinoid concentrations. The THC and CBD extracts were compared against pure THC and CBD.
The methods used were as described in Example 1 above.

In test [3] the test system is Human U87 MG astrocytoma cells xenografted to nude mice. Nature of the test: Tumour volume of U87 MG xenografts in nude mice. Type of test: in vivo. The settings on record: following 15 days of treatment, 15 mg/kg per day peritumourally. On the procedure:
Human U87 MG astrocytoma cells were xenografted to nude mice and the test compounds were injected peritumourally at a concentration of 15 mg/kg per day.

Where a SMILES comes first, the peptide text is derived from it. The star is where a group is joined. Cbz = O=C(OCc1ccccc1)*; CH2F = FC*

Regarding `CC(NC(=O)C(NC(=O)OCc1ccccc1)C(C)C)C(=O)NC(CC(=O)O)C(=O)CF` (stereo not drawn) [Z-VAD] (Cbz-Val-Ala-Asp-CH2F; configuration not given here), the induced cell death entry in test [1] is on record as “prevent induced cell death”.
As to `CCCCCc1cc(O)c2c(c1)OC(C)(C)[C@@H]1CCC(C)=C[C@@H]21` [THC, tetrahydrocannabinol], the IC50 in test [2] was 0.37 µM. Besides, the “Tumour volume relative to zero time” value in test [3] amounted to 5.1 ± 0.4.
The compound `C=C(C)[C@@H]1CCC(C)=C[C@H]1c1c(O)cc(CCCCC)cc1O` [CBD, cannabidiol] gave an IC50 in test [2] of 0.47 µM.

For the origin of these results see patent US8632825B2, “Anti-tumoural effects of cannabinoid combinations” (GW Pharma Limited, priority 2008, dated 2014).
